What was measured:
[1] = human, in vivo; cited from earlier work
[2] = Two-compartment PK model of osanetant fit to the Sanofi single-dose study; design: species or system human; conditions: two-compartment model parameter
From the text: Osanetant (SR 142801) is an NK3 receptor antagonist originally identified by Sanofi. Patacchini R. et al. 1995, Eur J Pharmacol 278 (1):17-25; Nguyen-Le X. K. et al. 1996, Pharmacology 52 (5):283-91; Beaujouan J. C. et al. 1997, Eur J Pharmacol 319 (2-3):307-16; Emonds-Alt X. et al. 1995, Life Sci 56 (1):P127-32). Osanetant pharmacokinetics (PK) was derived from a Study Report by Sanofi describing concentration curves and PK summary data. A two-compartment PK model was derived from the data the concentration: time curves. […] A two-compartment pharmacokinetic model was fit to the single-dose study in the Sanofi Study report.

CYP2D6 = CYP2D6 (Homo sapiens, UniProt P10635); conditions: cited from earlier work
Sequence of CYP2D6 (P10635 whole entry): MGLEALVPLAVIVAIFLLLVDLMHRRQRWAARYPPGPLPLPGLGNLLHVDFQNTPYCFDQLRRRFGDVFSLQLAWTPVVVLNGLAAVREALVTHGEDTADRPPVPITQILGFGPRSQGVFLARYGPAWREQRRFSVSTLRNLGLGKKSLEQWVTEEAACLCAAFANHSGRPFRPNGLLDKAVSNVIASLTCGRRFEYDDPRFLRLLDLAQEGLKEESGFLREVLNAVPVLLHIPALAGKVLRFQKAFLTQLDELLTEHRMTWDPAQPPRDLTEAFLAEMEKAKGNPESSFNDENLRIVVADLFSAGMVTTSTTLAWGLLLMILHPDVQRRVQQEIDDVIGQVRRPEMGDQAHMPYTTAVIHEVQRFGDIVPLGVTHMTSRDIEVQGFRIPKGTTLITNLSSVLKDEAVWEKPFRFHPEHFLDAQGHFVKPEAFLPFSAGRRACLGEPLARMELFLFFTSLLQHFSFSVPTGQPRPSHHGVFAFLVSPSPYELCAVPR

CYP3A4 = CYP3A4 (Homo sapiens, UniProt P08684); conditions: liver; cited from earlier work
Sequence of CYP3A4 (P08684 whole entry): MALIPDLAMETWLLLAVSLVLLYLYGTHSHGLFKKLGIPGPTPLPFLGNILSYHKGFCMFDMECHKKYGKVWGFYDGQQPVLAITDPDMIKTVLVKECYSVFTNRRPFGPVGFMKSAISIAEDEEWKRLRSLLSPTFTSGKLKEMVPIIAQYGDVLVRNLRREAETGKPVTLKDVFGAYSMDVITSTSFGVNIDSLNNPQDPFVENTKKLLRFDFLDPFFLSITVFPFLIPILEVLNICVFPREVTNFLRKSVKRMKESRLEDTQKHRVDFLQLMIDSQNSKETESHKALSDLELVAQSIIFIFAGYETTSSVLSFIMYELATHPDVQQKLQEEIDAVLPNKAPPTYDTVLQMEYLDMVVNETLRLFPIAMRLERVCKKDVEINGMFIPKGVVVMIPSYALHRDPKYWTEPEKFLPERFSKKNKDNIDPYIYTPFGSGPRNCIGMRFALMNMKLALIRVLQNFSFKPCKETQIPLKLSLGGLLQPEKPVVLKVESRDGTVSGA

[3] = animal study; cited from earlier work
[4] = oral dosing, set in the multiple-dose PK model; cited from earlier work

Blood_Liver_transport_k [2] [min⁻¹] | Q [2] [L/min] | Vol_central [2] [L] | Vol_periph [2] [L] | ka [2] [min⁻¹] | SMILES | patients who experience increased frequency and/or duration of VMS [1] | CYP2D6 activity (CYP2D6) | clearance mechanism (CYP3A4) | Brain/plasma concentration [3] | Bioavailability [4] [%]
 |  |  |  |  | CCNC(=O)[C@@H]1CCCN1C(=O)[C@H](CCCNC(=N)N)NC(=O)[C@H](CC(C)C)NC(=O)[C@@H](CC(C)C)NC(=O)[C@H](Cc1ccc(O)cc1)NC(=O)[C@H](CO)NC(=O)[C@H](Cc1c[nH]c2ccccc12)NC(=O)[C@H](Cc1c[nH]cn1)NC(=O)[C@@H]1CCC(=O)N1 [leuprolide] | about 80% |  |  |  | 
0.011 | 13.9 | 620 | 1768 | 0.039 | CC(=O)N(C)C1(c2ccccc2)CCN(CCC[C@]2(c3ccc(Cl)c(Cl)c3)CCCN(C(=O)c3ccccc3)C2)CC1 [osanetant, (R)—N-(1-(3-(1-benzoyl-3-(3,4-dichlorophenyl)piperidin-3-yl)propyl)-4-phenylpiperidin-4-yl)-N-methylacetamide] |  | inhibits CYP2D6 activity | CYP3A4 metabolism in the liver is the primary clearance mechanism | 0.8 | 40
